Laboratory results from patent US20030236399A1, “Method of improving the quality of taste of natural sweetner” (Shangdong Hua Xian Stevia Co., Ltd., priority 2002, published 2003).

Legend:
[1] = high temperature, high acidity and high alkalinity; cited from earlier work
[2] = background statement; cited from earlier work
[3] = Dissolving under ambient temperature, before and after the process; type: physicochemical
Description: Comparisons have been made between the natural sweetener before and after the process of the present invention and the results are illustrated as follow: […]

| Compound | Stability of structure [1] | Sweetness level relative to sucrose [2] | Solubility under ambient temperature ([3]; Sweetness equivalent to 5% sucrose solution) | Solubility under ambient temperature ([3]; Sweetness equivalent to 10% sucrose solution) | Solubility under ambient temperature ([3]; Sweetness equivalent to 15% sucrose solution) |
| --- | --- | --- | --- | --- | --- |
| C=C1C[C@@]23CC[C@H]4[C@@](C)(CCC[C@@]4(C)C(=O)O[C@@H]4O[C@H](CO)[C@@H](O)[C@H](O)[C@H]4O)[C@@H]2CC[C@]1(O[C@@H]1O[C@H](CO)[C@@H](O)[C@H](O)[C@H]1O[C@@H]1O[C@H](CO)[C@@H](O)[C@H](O)[C@H]1O)C3 [stevioside] | stable in structure | 200-300 times higher than that of sucrose | insoluble under ambient | insoluble under ambient |  |
| α-glycosyl stevioside |  |  |  |  | taste, easy to dissolve under |
